For six compounds, Ki results are on record in ChEMBL document CHEMBL1141158, “New 5-hydroxytryptamine(1A) receptor ligands containing a norbornene nucleus: synthesis and in vitro pharmacological evaluation” (J Med Chem, 2005).

Experiment [1] concerns the target T1, 5-hydroxytryptamine receptor 2C (Rattus norvegicus, UniProt P08909).
T1 sequence (P08909 whole entry): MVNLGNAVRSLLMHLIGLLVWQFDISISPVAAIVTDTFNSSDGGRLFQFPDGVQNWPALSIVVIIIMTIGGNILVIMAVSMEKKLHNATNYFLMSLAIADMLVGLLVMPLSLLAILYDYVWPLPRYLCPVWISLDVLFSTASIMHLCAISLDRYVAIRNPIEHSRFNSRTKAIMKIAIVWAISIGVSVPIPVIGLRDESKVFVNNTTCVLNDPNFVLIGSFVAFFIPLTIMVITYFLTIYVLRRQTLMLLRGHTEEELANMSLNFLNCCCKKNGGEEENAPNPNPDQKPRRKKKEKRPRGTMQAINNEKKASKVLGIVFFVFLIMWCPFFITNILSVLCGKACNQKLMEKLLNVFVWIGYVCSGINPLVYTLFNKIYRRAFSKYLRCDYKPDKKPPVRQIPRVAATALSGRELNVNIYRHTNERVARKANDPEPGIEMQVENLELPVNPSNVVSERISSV
Put plainly: Inhibition of 1 nM [3H]mesulergine binding to Serotonin 5-HT2C receptor from rat brain cortex.

The target of experiment [2] is 5-hydroxytryptamine receptor 2A (Rattus norvegicus, UniProt P14842). Put plainly: Inhibition of 0.4 nM [3H]ketanserin binding to Serotonin 5-HT2A receptor from rat brain cortex.
Sequence of 5-hydroxytryptamine receptor 2A (P14842 whole entry): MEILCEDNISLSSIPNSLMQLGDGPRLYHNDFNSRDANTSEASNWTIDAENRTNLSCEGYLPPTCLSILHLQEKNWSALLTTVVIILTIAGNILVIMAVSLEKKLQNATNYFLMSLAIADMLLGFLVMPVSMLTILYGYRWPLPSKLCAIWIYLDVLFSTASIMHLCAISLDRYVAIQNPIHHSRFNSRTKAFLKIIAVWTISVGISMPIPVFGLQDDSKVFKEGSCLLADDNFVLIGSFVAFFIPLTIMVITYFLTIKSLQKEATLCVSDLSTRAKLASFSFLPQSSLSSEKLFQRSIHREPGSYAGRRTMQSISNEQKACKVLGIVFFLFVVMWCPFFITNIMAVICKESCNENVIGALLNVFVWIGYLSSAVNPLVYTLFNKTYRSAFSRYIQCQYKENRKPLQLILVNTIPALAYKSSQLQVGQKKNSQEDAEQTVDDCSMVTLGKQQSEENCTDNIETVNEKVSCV
Experiment [3] has as its target T2, 5-hydroxytryptamine receptor 1A (Rattus norvegicus, UniProt P19327).
T2 sequence (P19327 whole entry): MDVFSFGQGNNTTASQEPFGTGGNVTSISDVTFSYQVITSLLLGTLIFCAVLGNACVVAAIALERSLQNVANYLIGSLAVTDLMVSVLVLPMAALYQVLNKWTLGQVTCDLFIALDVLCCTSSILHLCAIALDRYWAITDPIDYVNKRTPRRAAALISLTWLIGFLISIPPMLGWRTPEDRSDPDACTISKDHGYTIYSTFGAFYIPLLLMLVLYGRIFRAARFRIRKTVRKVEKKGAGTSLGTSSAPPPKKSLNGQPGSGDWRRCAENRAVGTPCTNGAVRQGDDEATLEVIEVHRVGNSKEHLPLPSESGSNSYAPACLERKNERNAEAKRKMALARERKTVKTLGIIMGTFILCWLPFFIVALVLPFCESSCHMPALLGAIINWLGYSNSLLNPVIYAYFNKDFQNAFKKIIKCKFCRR
Nature of the experiment: Inhibition of [3H]8-OH-DPAT binding to Serotonin 5-HT1A receptor from rat brain cortex.

As a reminder, the Ki is the equilibrium dissociation constant of an inhibitor or competing ligand from its target.

`COc1ccccc1N1CCN(CCON2C(=O)C3C4C=CC(C4)C3C2=O)CC1` (configuration not stated): the results for the Ki in experiment [1], in experiment [2] and in experiment [3] were more than 10000 nM, more than 10000 nM and 45 nM, respectively.

Take `O=C1C2C3C=CC(C3)C2C(=O)N1OCCN1CCN(c2ncccn2)CC1` (configuration not stated): the Ki was more than 10000 nM in experiment [2] and 384 nM in experiment [3].

Turning to `O=C1C2C3C=CC(C3)C2C(=O)N1OCCN1CCN(c2cccc(Cl)c2)CC1` (configuration not stated), the inhibition constant (Ki) in experiment [1] is more than 10000 nM; in experiment [2] it was 2700 nM; in experiment [3], 27.1 nM.

On to `O=C1C2C3C=CC(C3)C2C(=O)N1OCCCN1CCN(c2ncccn2)CC1` (configuration not stated), for which the values for the inhibitory constant (Ki) in experiment [1], in experiment [2] and in experiment [3] were more than 10000 nM, 118 nM and 49.5 nM, respectively.

On to `O=C1C2C3C=CC(C3)C2C(=O)N1OCCCN1CCN(c2ccccn2)CC1` (configuration not stated), for which the inhibitory constant (Ki) in experiment [1] was more than 10000 nM; in experiment [2], more than 10000 nM; in experiment [3], 30.3 nM.

As to `O=C1C2C3C=CC(C3)C2C(=O)N1OCCN1CCN(c2ccccn2)CC1` (configuration not stated), the Ki in experiment [1] is more than 10000 nM; in experiment [2], 3510 nM; in experiment [3] it was 382 nM.
